Measurements as given in US10703748B2, “Diazanaphthalen-3-yl carboxamides and preparation and use thereof” (Samumed, LLC, priority 2017, dated 2020).

Assays:
[1] = biological target: DYRK1A kinase (Homo sapiens, UniProt Q13627); experiment: DYRK1A kinase activity (Ser/Thr 18 peptide Z-lyte FRET assay); assay type: biochemical; settings: recombinant DYRK1A, 30 μM ATP, one hour at room temperature;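 note: kinase activity read as coumarin/fluorescein emission ratio after development step, with unphosphorylated and phosphorylated peptide forms setting 0% and 100% controls, values from dose-response curves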
[2] = biological target: GSK3β kinase (Homo sapiens, UniProt P49841); experiment: GSK3β kinase activity (Ser/Thr 09 peptide Z-lyte FRET assay); assay type: biochemical; settings: recombinant kinase, 46 μM ATP, one hour at room temperature; read-out: EC50
[3] = test system: Tau phosphorylation at Ser396 (pSer396); experiment: Tau phosphorylation at Ser396 (pSer396) in SH-SY5Y cells, ELISA / western blot; assay type: cell-based, human; settings: Homo sapiens; SH-SY5Y cells, overnight (16-18 h); read-out: pSer396 Tau EC50;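 note: decrease in pSer396 Tau measured in lysates of treated cells by colorimetric ELISA or chemiluminescent western blot, same pSer396 antibody for both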
Protocol: Two days before treatment, cells were seeded onto 96 well plates at 5×10^4 cells/well.
The above synthesized compounds were screened using the cell assay procedure to assess decrease Tau phosphorylation at Ser396 (pSer396) described below.
Cells were lysed with RIPA buffer complemented with phosphatase and protease inhibitors then lysates were spun down at 12,000 g for 10 min to remove any cellular debris.

[4] = test system: secreted cytokines TNFα, IL-6 and KC-GRO; experiment: Secreted cytokines in Lipopolysaccharide-stimulated BV-2 cells (Table 9 does not say which cytokine); assay type: cell-based, mouse; settings: Mus musculus, BV-2, 5 h; read-out: EC50
[5] = test system: SW480 colon carcinoma cells; experiment: Cell viability assay (CellTiter-Glo); settings: Homo sapiens; for EC50: SW480, 96 h; for inhibition at 10 µM: SW480, read-out: percent inhibition at 10 μM
[6] = test system: Wnt-responsive Sp5-Luc reporter in SW480 colon carcinoma cells; experiment: Screening assay for Wnt activity (Sp5-Luc reporter gene assay); settings: Homo sapiens; for EC50: SW480; for inhibition at 10 µM: SW480, read-out: percent inhibition at 10 μM
[7] = test system: IL-6; experiment: IL-6 inhibition in LPS-stimulated human peripheral blood mononuclear cells (HTRF); settings: Homo sapiens, PBMC; for EC50: 22 h; for inhibition at 10 µM: read-out: percentage in parentheses after EC50 >10
[8] = test system: α-smooth muscle actin (aSMA) positive LL29 cells; experiment: Inhibition of the fibrotic process: αSMA staining in TGF-β1 treated LL29 fibroblasts from IPF patients; settings: Homo sapiens, Fibroblast; for EC50: 96 h; for inhibition at 10 µM: read-out: percentage in parentheses after EC50 >10

Chain of GSK3β kinase (P49841 whole entry): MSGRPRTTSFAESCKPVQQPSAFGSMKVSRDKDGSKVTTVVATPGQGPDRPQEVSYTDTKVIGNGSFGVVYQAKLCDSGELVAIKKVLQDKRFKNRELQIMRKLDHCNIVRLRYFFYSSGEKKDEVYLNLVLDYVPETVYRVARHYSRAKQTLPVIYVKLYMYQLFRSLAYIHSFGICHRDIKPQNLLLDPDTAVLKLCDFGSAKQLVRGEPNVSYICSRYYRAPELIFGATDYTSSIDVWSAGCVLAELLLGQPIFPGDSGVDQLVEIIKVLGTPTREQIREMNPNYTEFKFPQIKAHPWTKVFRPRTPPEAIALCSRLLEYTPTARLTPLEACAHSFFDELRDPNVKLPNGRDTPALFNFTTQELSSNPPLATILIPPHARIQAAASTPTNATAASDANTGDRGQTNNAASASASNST

SMILES	EC50 [1] [nM]	EC50 [2] [nM]	EC50 [3] [nM]	EC50 [4] [nM]	EC50 [5] [nM]	EC50 [6] [nM]	EC50 [7] [nM]	inhibition at 10 µM [7] [%]	EC50 [8] [nM]	inhibition at 10 µM [8] [%]	inhibition at 10 µM [5] [%]	inhibition at 10 µM [6] [%]
Cn1cc(-c2ccc3cnc(NC(=O)CCc4ccccc4)nc3c2)cn1 [Compound 1101, N-(7-(1-Methyl-1H-pyrazol-4-yl)quinazolin-2-yl)-3-phenylpropanamide]	20	55	9500	3100	4480	2280	> 10000	10.6	> 10000	12.7	–	–
Cn1ncc(-c2ccc3cnc(NC(=O)C4CC5(C4)CN(CCF)C5)nc3c2)c1CN1CCCCC1 [Compound 1186, 2-(2-Fluoroethyl)-N-(7-(1-methyl-5-(piperidin-1-ylmethyl)-1H-pyrazol-4-yl)quinazolin-2-yl)-2-azaspiro[3.3]heptane-6-carboxamide]	42	402	5400	5600	> 10000	> 10000	> 10000	6.7	> 10000	24.5	35.2	35.8
Cn1cc(-c2ccc3cnc(NC(=O)C4CCN(CC5(C(F)(F)F)CC5)CC4)nc3c2)nn1 [Compound 1253, N-(7-(1-Methyl-1H-1,2,3-triazol-4-yl)quinazolin-2-yl)-1-((1-(trifluoromethyl)cyclopropyl)methyl)piperidine-4-carboxamide]	13	15	188	> 10000	> 10000	1180	> 10000	4.4	> 10000	47.2	17.1	–
CNC(=O)c1ccc(C(=O)Nc2ncc3ccc(-c4cn(C)nn4)cc3n2)cn1 [Compound 1278, N^2-Methyl-N^5-(7-(1-methyl-1H-1,2,3-triazol-4-yl)quinazolin-2-yl)pyridine-2,5-dicarboxamide]	7	134	5050	7200	8530	3700	> 10000	3	> 10000	35.9	–	–
CN1CCC(N(C)c2cc(C(=O)Nc3ncc4ccc(-c5cn(C)nn5)cc4n3)ccn2)CC1 [Compound 1288, 2-(Methyl(1-methylpiperidin-4-yl)amino)-N-(7-(1-methyl-1H-1,2,3-triazol-4-yl)quinazolin-2-yl)isonicotinamide]	6	177	10000	6100	1090	59	> 10000	9.8	8010	–	–	–
Cc1cn2c(n1)CN(C(=O)Nc1ncc3ccc(-c4cnc(C)o4)cc3n1)CC2 [Compound 1491, 2-Methyl-N-(7-(2-methyloxazol-5-yl)quinazolin-2-yl)-5,6-dihydroimidazo [1,2-a]pyrazine-7(8H)-carboxamide]	39	166	3700	3900	8860	> 10000	> 10000	2.6	> 10000	6.1	–	25.2
CN(C)[C@H]1CC[C@H](C(=O)Nc2ncc3ccc(-c4cncs4)cc3n2)CC1 [Compound 1518, trans-4-(Dimethylamino)-N-(7-(thiazol-5-yl)quinazolin-2-yl)cyclohexane-1-carboxamide]	14	253	5400	1080	> 10000	> 10000	> 10000	30.1	2610	–	25.3	24.8
O=C(Nc1ncc2ccc(-c3cncs3)cc2n1)C1CCN(C(=O)CN2CCCC2)CC1 [Compound 1524, 1-(2-(Pyrrolidin-1-yl)acetyl)-N-(7-(thiazol-5-yl)quinazolin-2-yl)piperidine-4-carboxamide]	7	407	> 10000	3600	> 10000	> 10000	> 10000	50	4780	–	18.1	13.4
CN1CCN(c2cc(C(=O)Nc3ncc4ccc(-c5cncs5)cc4n3)ccn2)CC1 [Compound 1536, 2-(4-Methylpiperazin-1-yl)-N-(7-(thiazol-5-yl)quinazolin-2-yl)isonicotinamide]	4	207	1180	336	1040	663	> 10000	49.6	1130	–	–	–
CN1CCC(C(=O)Nc2ncc3ccc(-c4cnsc4)cc3n2)CC1 [Compound 1598, N-(7-(Isothiazol-4-yl)quinazolin-2-yl)-1-methylpiperidine-4-carboxamide]	27	4180	> 10000	3100	> 10000	> 10000	> 10000	7.5	1270	–	8.4	15.5
CO[C@H]1CC[C@@H](C(=O)Nc2ncc3ccc(-c4nnc(C)s4)cc3n2)CC1 [Compound 1612, cis-4-Methoxy-N-(7-(5-methyl-1,3,4-thiadiazol-2-yl)quinazolin-2-yl)cyclohexane-1-carboxamide]	21	49	1100	2200	> 10000	> 10000	> 10000	6.3	> 10000	42	23.8	37.9
Cc1nnc(-c2ccc3cnc(NC(=O)C4CCN(C(=O)c5ccccc5)CC4)nc3c2)s1 [Compound 1625, 1-Benzoyl-N-(7-(5-methyl-1,3,4-thiadiazol-2-yl)quinazolin-2-yl)piperidine-4-carboxamide]	25	8	402	436	> 10000	> 10000	> 10000	4	1770	–	18.8	37.3
O=C(Nc1ncc2ccc(-c3cccnc3)cc2n1)C1CC1 [Compound 1670, N-(7-(Pyridin-3-yl)quinazolin-2-yl)cyclopropanecarboxamide]	6	120	604	2900	9050	3710	> 10000	7.2	4850	–	–	–
Cn1cc(-c2cnc3cnc(NC(=O)C4CC4)cc3c2)cn1 [Compound 2722, N-(3-(1-Methyl-1H-pyrazol-4-yl)-1,7-naphthyridin-6-yl) cyclopropanecarboxamide]	23	326	6010	822	> 10000	> 10000	8900	–	1010	–	31	13.7
Cn1cc(-c2cnc3cnc(NC(=O)C4CCNCC4)cc3c2)cn1 [Compound 2731, N-(3-(1-Methyl-1H-pyrazol-4-yl)-1,7-naphthyridin-6-yl)piperidine-4-carboxamide]	21	5510	> 10000	1200	> 10000	> 10000	> 10000	2.8	5320	–	26.5	30.9
CC(C)CN1CCC(C(=O)Nc2cc3cc(-c4cnn(C)c4)cnc3cn2)CC1 [Compound 2736, 1-Isobutyl-N-(3-(1-methyl-1H-pyrazol-4-yl)-1,7-naphthyridin-6-yl) piperidine-4-carboxamide]	30	3730	> 10000	109	> 10000	> 10000	> 10000	0	> 10000	17	10.7	19.3
Cn1ncc(-c2cnc3cnc(NC(=O)C4CC5(C4)CN(CCF)C5)cc3c2)c1CN1CCCCC1 [Compound 3000, 2-(2-Fluoroethyl)-N-(3-(1-methyl-5-(piperidin-1-ylmethyl)-1H-pyrazol-4-yl)-1,7-naphthyridin-6-yl)-2-azaspiro[3.3]heptane-6-carboxamide]	10	166	1830	307	5950	1950	2260	–	9890	–	–	–
